Read-outs that look alike come from different tables or passages of the source.
Assays:
GABA A receptor α2β3γ2 = target: T1, GABA A receptor α2β3γ2 (Homo sapiens, UniProt P18507+P47869); test: [3H]flumazenil competition binding, human α2β3γ2
T1 construct: expressed in transfected cells; host or cells: HEK293 (transiently transfected), membranes
Method: (§1) The affinity of compounds at GABA A receptor subtypes was measured by competition for [^3H]flumazenil (85 Ci/mmol; Roche) binding to HEK293 cells expressing rat (stably transfected) or human (transiently transfected) receptors of composition α1β3γ2, α2β3γ2, α3β3γ2 and α5β3γ2.
(§2) Cell pellets were suspended in Krebs-tris buffer (4.8 mM KCl, 1.2 mM CaCl2, 1.2 mM MgCl2, 120 mM NaCl, 15 mM Tris; pH 7.5; binding assay buffer), homogenized by polytron for ca. 20 sec on ice and centrifuged for 60 min at 4° C. (50000 g; Sorvall, rotor: SM24=20000 rpm). The cell pellets were resuspended in Krebs-tris buffer and homogenized by polytron for ca. 15 sec on ice. Protein was measured (Bradford method, Bio-Rad) and aliquots of 1 mL were prepared and stored at −80° C.
(§3) Radioligand binding assays were carried out in a volume of 200 μL (96-well plates) which contained 100 μL of cell membranes, [^3H]flumazenil at a concentration of 1 nM for α1, α2, α3 subunits and 0.5 nM for α5 subunits and the test compound in the range of 10^−10−3×10^−6 M. Nonspecific binding was defined by 10^−5 M diazepam and typically represented less than 5% of the total binding. Assays were incubated to equilibrium for 1 hour at 4° C. and harvested onto GF/C uni-filters (Packard) by filtration using a Packard harvester and washing with ice-cold-wash buffer (50 mM Tris; pH 7.5). After drying, filter-retained radioactivity was detected by liquid scintillation counting. Ki values were calculated using Excel-Fit (Microsoft) and are the means of two determinations.

GABA A receptor α5β3γ2 = target: T2, GABA A receptor α5β3γ2 (Homo sapiens, UniProt P18507+P31644); test: [3H]flumazenil competition binding, human α5β3γ2
T2 construct: expressed in transfected cells; host or cells: HEK293 (transiently transfected), membranes
Method: as §1, §2, §3

GABA A receptor α3β3γ2 = target: T3, GABA A receptor α3β3γ2 (Homo sapiens, UniProt P18507+P34903); test: [3H]flumazenil competition binding, human α3β3γ2
T3 construct: expressed in transfected cells; host or cells: HEK293 (transiently transfected), membranes
Method: as §1, §2, §3

GABA A receptor α1β3γ2 = target: T4, GABA A receptor α1β3γ2 (Homo sapiens, UniProt P14867+P18507); test: [3H]flumazenil competition binding, human α1β3γ2
T4 construct: expressed in transfected cells; host or cells: HEK293 (transiently transfected), membranes
Method: as §1, §2, §3

[1] = HEK293 cell membranes, human (transiently transfected) receptor, 1 nM [3H]flumazenil, mean of two determinations, read-out: Ki[nM] hα2
[2] = HEK293 cell membranes, human (transiently transfected) receptor, 0.5 nM [3H]flumazenil, mean of two determinations, read-out: Ki[nM] hα5
[3] = HEK293 cell membranes, human (transiently transfected) receptor, 1 nM [3H]flumazenil, mean of two determinations, read-out: Ki[nM] hα3
[4] = HEK293 cell membranes, human (transiently transfected) receptor, 1 nM [3H]flumazenil, mean of two determinations, read-out: Ki[nM] hα1

SMILES	Ki (GABA A receptor α2β3γ2; [1])	Ki (GABA A receptor α5β3γ2; [2])	Ki (GABA A receptor α3β3γ2; [3])	Ki (GABA A receptor α1β3γ2; [4])	Ki (GABA A receptor α2β3γ2)	Ki (GABA A receptor α5β3γ2)	Ki (GABA A receptor α3β3γ2)	Ki (GABA A receptor α1β3γ2)
CC(=O)c1ncn2c1Cn1ncnc1-c1cc(F)ccc1-2 [Example 1, 1-[3-Fluoro-9H-imidazo[1,5-a][1,2,4]triazolo[1,5-d][1,4]benzodiazepin-10-yl]-ethanone]	183 nM	104 nM	233 nM	314 nM				
CCC(=O)c1ncn2c1Cn1ncnc1-c1cc(F)ccc1-2 [Example 2, 1-[3-Fluoro-9H-imidazo[1,5-a][1,2,4]triazolo[1,5-d][1,4]benzodiazepin-10-yl]-propan-1-one]					3.4 nM	2.2 nM	3.9 nM	6.2 nM
O=C(c1ncn2c1Cn1ncnc1-c1cc(F)ccc1-2)C1CC1 [Example 3, Cyclopropyl-[3-fluoro-9H-imidazo[1,5-a][1,2,4]triazolo[1,5-d][1,4]benzodiazepin-10-yl]-methanone]					2 nM	1.2 nM	1.8 nM	2.8 nM
O=C(CCCc1ccccc1)c1ncn2c1Cn1ncnc1-c1cc(F)ccc1-2 [Example 4, 1-[3-Fluoro-9H-imidazo[1,5-a][1,2,4]triazolo[1,5-d][1,4]benzodiazepin-10-yl]-4-phenyl-butan-1-one]					60 nM	16.4 nM	55.9 nM	45.6 nM
CCC(=O)c1ncn2c1Cn1ncnc1-c1cc(Cl)ccc1-2 [Example 5, 1-[3-Chloro-9H-imidazo[1,5-a][1,2,4]triazolo[1,5-d][1,4]benzodiazepin-10-yl]-propan-1-one]					28.1 nM	2.7 nM	22.4 nM	32.2 nM
O=C(c1ncn2c1Cn1ncnc1-c1cc(Cl)ccc1-2)C1CC1 [Example 6, Cyclopropyl-[3-chloro-9H-imidazo[1,5-a][1,2,4]triazolo[1,5-d][1,4]benzodiazepin-10-yl]-methanone]					18 nM	2.2 nM	19.9 nM	14.5 nM
O=C1CCCN1C(=O)c1ncn2c1Cn1ncnc1-c1cc(F)ccc1-2 [Example 9, 1-[[3-Fluoro-9H-imidazo[1,5-a][1,2,4]triazolo[1,5-d][1,4]benzodiazepin-10-yl]carbonyl]-2-pyrrolidinone]					12.3 nM	5.8 nM	9 nM	12.3 nM
C#CCNC(=O)c1ncn2c1Cn1ncnc1-c1cc(F)ccc1-2 [Example 10, 3-Fluoro-9H-imidazo[1,5-a][1,2,4]triazolo[1,5-d][1,4]benzodiazepine-10-carboxylic acid prop-2-ynylamide]				242 nM	67.8 nM	67.8 nM	64.9 nM	
CCOC(=O)c1ncn2c1Cn1ncnc1-c1cc(C3CC3)ccc1-2 [Example 12, Ethyl 3-cyclopropyl-9H-imidazo[1,5-a][1,2,4]triazolo[1,5-d][1,4]benzodiazepine-10-carboxylate]					0.9 nM	0.6 nM	0.7 nM	1.7 nM
CCOC(=O)c1ncn2c1Cn1ncnc1-c1cc(OC)ccc1-2 [Example 14, Ethyl 3-methoxy-9H-imidazo[1,5-a][1,2,4]triazolo[1,5-d][1,4]benzodiazepine-10-carboxylate]					1.7 nM	0.2 nM	0.9 nM	0.9 nM
CCOC(=O)c1ncn2c1Cn1ncnc1-c1cc(OC(F)(F)F)ccc1-2 [Example 19, Ethyl 3-trifluoromethoxy-9H-imidazo[1,5-a][1,2,4]triazolo[1,5-d][1,4]benzodiazepine-10-carboxylate]					1.1 nM	0.7 nM	1.4 nM	3.4 nM
O=Cc1ncn2c1Cn1ncnc1-c1cc(Cl)ccc1-2 [Example 21, 3-Chloro-9H-imidazo[1,5-a][1,2,4]triazolo[1,5-d][1,4]benzodiazepine-10-carbaldehyd]	134 nM			223 nM		5.9 nM	71.9 nM	
CCOC(=O)c1ncn2c1Cn1ncnc1-c1cc(Br)ccc1-2 [Example 23, Ethyl 3-bromo-9H-imidazo[1,5-a][1,2,4]triazolo[1,5-d][1,4]benzodiazepine-10-carboxylate]	3.8 nM	0.3 nM	1.8 nM	1.9 nM				
C#Cc1ccc2c(c1)-c1ncnn1Cc1c(C(=O)OCC)ncn1-2 [Example 24, Ethyl 3-ethynyl-9H-imidazo[1,5-a][1,2,4]triazolo[1,5-d][1,4]benzodiazepine-10-carboxylate]					4.4 nM	0.6 nM	6.4 nM	10.6 nM
COCCOC(=O)c1ncn2c1Cn1ncnc1-c1cc(Br)ccc1-2 [Example 25, 2-Methoxy-ethyl 3-bromo-9H-imidazo[1,5-a][1,2,4]triazolo[1,5-d][1,4]benzodiazepine-10-carboxylate]					28.5 nM	1.4 nM	18.8 nM	20.3 nM
CCCC(=O)c1ncn2c1Cn1ncnc1-c1cc(Br)ccc1-2 [Example 26, 1-[3-Bromo-9H-imidazo[1,5-a][1,2,4]triazolo[1,5-d][1,4]benzodiazepin-10-yl]-butan-1-one]	106 nM					3.5 nM	72.7 nM	85.1 nM
CC(C)CC(=O)c1ncn2c1Cn1ncnc1-c1cc(Br)ccc1-2 [Example 31, 1-[3-Bromo-9H-imidazo[1,5-a][1,2,4]triazolo[1,5-d][1,4]benzodiazepin-10-yl]-3-methyl-butan-1-one]	261 nM		173 nM	243 nM		8.3 nM		
O=C(CCc1ccccc1)c1ncn2c1Cn1ncnc1-c1cc(Br)ccc1-2 [Example 33, 1-[3-Bromo-9H-imidazo[1,5-a][1,2,4]triazolo[1,5-d][1,4]benzodiazepin-10-yl]-3-phenyl-propan-1-one]	160 nM		133 nM	109 nM		3.8 nM		
CCOC(=O)c1ncn2c1Cn1ncnc1-c1cc(NC(=O)C(F)(F)F)ccc1-2 [Example 38, Ethyl 3-(2,2,2-trifluoro-acetylamino)-9H-imidazo[1,5-a][1,2,4]triazolo[1,5-d][1,4]benzodiazepine-10-carboxylate]					7.3 nM	1.2 nM	5.7 nM	3.1 nM
CCOC(=O)c1ncn2c1Cn1ncnc1-c1cc(NC(=O)C(C)C)ccc1-2 [Example 39, Ethyl 3-isobutyrylamino-9H-imidazo[1,5-a][1,2,4]triazolo[1,5-d][1,4]benzodiazepine-10-carboxylate]					73.5 nM	6.4 nM	39.7 nM	11.4 nM
CCOC(=O)c1ncn2c1Cn1ncnc1-c1cc(NC(=O)CCOC)ccc1-2 [Example 41, Ethyl 3-(3-methoxy-propionylamino)-9H-imidazo[1,5-a][1,2,4]triazolo[1,5-d][1,4]benzodiazepine-10-carboxylate]					24.8 nM	5.1 nM	17.7 nM	9.7 nM
CCOC(=O)c1ncn2c1Cn1ncnc1-c1cc(NC=O)ccc1-2 [Example 42, Ethyl 3-formylamino-9H-imidazo[1,5-a][1,2,4]triazolo[1,5-d][1,4]benzodiazepine-10-carboxylate]					8.6 nM	2 nM	4.9 nM	6.5 nM
CCOC(=O)Nc1ccc2c(c1)-c1ncnn1Cc1c(C(=O)OCC)ncn1-2 [Example 43, Ethyl 3-ethoxycarbonylamino-9H-imidazo[1,5-a][1,2,4]triazolo[1,5-d][1,4]benzodiazepine-10-carboxylate]					22 nM	2.6 nM	14.4 nM	5.3 nM
CCNC(=O)Nc1ccc2c(c1)-c1ncnn1Cc1c(C(=O)OCC)ncn1-2 [Example 44, Ethyl 3-(3-ethyl-ureido)-9H-imidazo[1,5-a][1,2,4]triazolo[1,5-d][1,4]benzodiazepine-10-carboxylate]					26 nM	6.9 nM	12.4 nM	20.3 nM
